# Source: paper PMC9143591, “The Chemical Constituents of Diaphragma Juglandis Fructus and Their Inhibitory Effect on α-Glucosidase Activity” (Molecules, 2022)
# Target: α-glucosidase (Saccharomyces cerevisiae, UniProt P53341)
# Assay: α-Glucosidase inhibitory assay
# Type: biochemical
# Details: in vitro
# Experimental: Alpha-glucosidase is an enzyme that hydrolyzes the carbohydrates to monosaccharides in the final step of carbohydrate digestion. […] In order to search for bioactive substances to treat type 2 diabetes using Diaphragma juglandis Fructus, all isolated constituents (1–37) were assessed for antidiabetic activity using an in vitro α-glycosidase inhibition assay.
# The α-glucosidase was obtained from Sigma-Aldrich (Shanghai) Trading Co., Ltd (Shanghai, China). p-nitrophenyl-α-D-glucopyranoside was obtained from Macklin Co., Ltd. (Lot# C12592180, Shanghai, China).
# The α-glucosidase inhibition assay was performed according to a previous report with a slight difference: the concentration of α-glucosidase was diluted to 0.15 unit/mL. The volume of α-glucosidase added to the 96-well plate was 10 μL.
# Sequence of α-glucosidase (P53341 whole entry): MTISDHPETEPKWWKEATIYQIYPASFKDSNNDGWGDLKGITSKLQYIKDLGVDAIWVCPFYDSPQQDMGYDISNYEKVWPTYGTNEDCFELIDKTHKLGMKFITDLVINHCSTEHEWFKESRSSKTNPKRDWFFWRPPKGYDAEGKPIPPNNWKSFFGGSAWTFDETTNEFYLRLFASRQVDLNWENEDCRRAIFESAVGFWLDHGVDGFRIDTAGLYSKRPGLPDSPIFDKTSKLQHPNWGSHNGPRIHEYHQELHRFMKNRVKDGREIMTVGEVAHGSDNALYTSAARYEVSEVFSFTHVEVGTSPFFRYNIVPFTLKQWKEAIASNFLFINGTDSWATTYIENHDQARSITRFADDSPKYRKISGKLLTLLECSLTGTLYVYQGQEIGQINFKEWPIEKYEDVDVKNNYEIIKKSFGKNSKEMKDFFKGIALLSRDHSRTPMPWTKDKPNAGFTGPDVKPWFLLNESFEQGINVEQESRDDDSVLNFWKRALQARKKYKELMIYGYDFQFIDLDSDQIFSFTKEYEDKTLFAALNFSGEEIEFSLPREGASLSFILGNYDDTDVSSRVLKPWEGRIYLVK
row,Structure (SMILES),α-glucosidase inhibition activity (in words)
1,"O=C1c2c(O)cc(O)cc2OC(c2ccc(O)c(O)c2)C1O (stereo not shown) [Compound 13, taxifolin]",quite potent
2,"Oc1cc(O)c2c(c1)O[C@@H](c1ccc(O)c(O)c1)[C@H](O)C2 [Compound 16, (+)-catechin]",quite potent
3,"O=c1c(O)c(-c2ccc(O)c(O)c2)oc2cc(O)cc(O)c12 [Compound 21, quercetin]",quite potent
4,"O=c1cc(-c2ccc(O)c(O)c2)oc2cc(O)cc(O)c12 [Compound 28, luteolin]",quite potent
